The results in this text go back to ChEMBL document CHEMBL2086347, “Antitrypanosomal and cysteine protease inhibitory activities of alkyldiamine cryptolepine derivatives” (Bioorg Med Chem Lett, 2012).

A value given as a limit tells only on which side of the number the result lay.

Series [1] addresses T1, Cathepsin B-like cysteine protease (Trypanosoma brucei, UniProt Q6R7Z5).
T1 sequence (Q6R7Z5 whole entry): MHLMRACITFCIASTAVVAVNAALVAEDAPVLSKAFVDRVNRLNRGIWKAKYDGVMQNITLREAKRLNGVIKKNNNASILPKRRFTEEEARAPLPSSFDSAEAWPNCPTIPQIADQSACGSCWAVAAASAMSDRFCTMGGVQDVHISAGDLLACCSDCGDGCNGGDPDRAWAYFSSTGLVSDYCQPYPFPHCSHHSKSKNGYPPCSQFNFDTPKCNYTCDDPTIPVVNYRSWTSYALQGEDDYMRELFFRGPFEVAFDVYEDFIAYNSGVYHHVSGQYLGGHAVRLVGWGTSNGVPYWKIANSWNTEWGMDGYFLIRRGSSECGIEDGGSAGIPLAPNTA
In words: Inhibition of Trypanosoma brucei CatB.

A short description of series [2]: Selectivity index, ratio of CC50 for african green monkey Vero cells to IC50 for Trypanosoma brucei brucei. Format: functional.
The target of series [3] is Rhodesain (Trypanosoma brucei rhodesiense, UniProt Q95PM0). Description: Inhibition of Trypanosoma brucei rhodesiense rhodesain.
The nature of series [4]: Cytotoxicity against african green monkey Vero cells. Format: cell-based. Particulars: chlorocebus sabaeus.
For series [5], the system named is Trypanosoma brucei brucei. Description: Antitrypanosomal activity against Trypanosoma brucei brucei. The series is classed as functional, organism-based.
Series [6] can be described thus: Inhibition of Trypanosoma cruzi cruzaine.

Rhodesain, sequence (Q95PM0 whole entry): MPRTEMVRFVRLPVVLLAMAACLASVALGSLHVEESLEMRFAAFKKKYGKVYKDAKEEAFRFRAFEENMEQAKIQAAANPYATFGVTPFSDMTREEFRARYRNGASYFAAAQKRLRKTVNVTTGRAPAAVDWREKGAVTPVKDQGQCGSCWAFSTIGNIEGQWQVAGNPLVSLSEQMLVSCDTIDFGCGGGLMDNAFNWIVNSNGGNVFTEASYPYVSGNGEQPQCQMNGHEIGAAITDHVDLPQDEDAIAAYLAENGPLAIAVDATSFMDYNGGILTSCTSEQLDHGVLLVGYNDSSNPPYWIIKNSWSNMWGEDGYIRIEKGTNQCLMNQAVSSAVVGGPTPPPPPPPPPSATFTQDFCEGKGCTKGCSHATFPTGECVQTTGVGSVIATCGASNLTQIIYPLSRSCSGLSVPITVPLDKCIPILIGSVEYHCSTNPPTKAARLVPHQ

Turning to `CCN(CC)CCNc1c2ccccc2[n+](C)c2c1[nH]c1ccccc12.[Cl-]`, the IC50 in series [1] was 95 µM; in series [3], 11 µM; in series [5] it was 0.9 µM; in series [6], 23 µM. In addition, in series [2], the “Ratio CC50/IC50” value is given as 3.1. Also, the CC50 in series [4] was found to be 2.8 µM.
On to `CCN(CC)CCCCNc1c2ccccc2[n+](C)c2c1[nH]c1ccccc12.[Cl-]`, for which the IC50 turned out to be 55 µM in series [1], 6 µM in series [3], 0.03 µM in series [5] and 22 µM in series [6]. Besides, in series [2], the “Ratio CC50/IC50” value was found to be 333. The same compound came in with a CC50 in series [4] of 10 µM.
For `C[n+]1c2ccccc2c(NC2CCN(Cc3ccccc3)CC2)c2[nH]c3ccccc3c21.[Cl-]`, the IC50 came out at 32 µM in series [1], 4 µM in series [3], 0.03 µM in series [5] and 8 µM in series [6]. In addition, the “Ratio CC50/IC50” value in series [2] was determined as 73. The CC50 in series [4] was 2.2 µM.
In the case of `CCN(CC)Cc1ccc(Nc2c3ccccc3[n+](C)c3c2[nH]c2ccccc23)cc1O.[Cl-]`, the IC50 in series [1] was found to be 59 µM; in series [3] it was 5 µM; in series [5], 0.03 µM; in series [6], 10 µM. In addition, the “Ratio CC50/IC50” value in series [2] is listed as 27. Also, the midpoint of cytotoxicity in series [4], the CC50, lay at 0.8 µM.
Consider `CN(C)CCCNc1c2ccccc2[n+](C)c2c1[nH]c1ccccc12.[Cl-]`, for which the IC50 in series [1] is 31 µM; in series [3], 6 µM; in series [5], 0.03 µM; in series [6] it was 14 µM. For the same compound, the “Ratio CC50/IC50” value in series [2] was 73. In series [4], this compound gave a CC50 of 2.2 µM.
For the compound `CCN(CC)CCCC(C)Nc1c2ccccc2[n+](C)c2c1[nH]c1ccccc12.[Cl-]` (stereo unspecified), the IC50 in series [1] was above 100 µM; in series [3], 17 µM; in series [5], 0.4 µM; in series [6], 27 µM. Further, in series [2], the “Ratio CC50/IC50” value came out at 33. For the same compound, it took 13 µM to reach half-maximal cytotoxicity in series [4] (CC50).
For `CC(CN(C)C)Nc1c2ccccc2[n+](C)c2c1[nH]c1ccccc12.[Cl-]` (stereo unspecified), the IC50 in series [1] was above 100 µM; in series [3] it was 5 µM; in series [5], 1 µM; in series [6], 10 µM. For the same compound, the “Ratio CC50/IC50” value in series [2] is given as 3. The CC50 in series [4] is 3 µM.
Turning to `C[n+]1c2cc(Cl)ccc2c(NC2CCNCC2)c2[nH]c3ccccc3c21.[Cl-]`, the IC50 in series [1] was 59 µM; in series [3], 0.5 µM; in series [5], 0.3 µM; in series [6], 1 µM. Moreover, in series [2], the “Ratio CC50/IC50” value was determined as 147. Moreover, the CC50 in series [4] was 4.4 µM.
With `CCN(CC)CCCNc1c2ccccc2[n+](C)c2c1[nH]c1ccccc12.[Cl-]`, the IC50 in series [1] turned out to be 97 µM; in series [3], 13 µM; in series [5] it was 0.05 µM; in series [6] it was 34 µM. For the same compound, the “Ratio CC50/IC50” value in series [2] came to 40. In series [4], the CC50 is 2.5 µM.
Turning to `CN(C)CCNc1c2ccccc2[n+](C)c2c1[nH]c1ccccc12.[Cl-]`, the IC50 was found to be 91 µM in series [1], 7 µM in series [3], 0.7 µM in series [5] and 23 µM in series [6]. Further, the “Ratio CC50/IC50” value in series [2] is recorded as 7.9. This compound also returned a CC50 in series [4] of 5.5 µM.
For the compound `CN(C)CC(C)(C)CNc1c2ccccc2[n+](C)c2c1[nH]c1ccccc12.[Cl-]`, the IC50 in series [1] was determined as 62 µM; in series [3], 19 µM; in series [5], 0.3 µM; in series [6], 26 µM. In addition, the “Ratio CC50/IC50” value in series [2] is listed as 10. In addition, the cytotoxic concentration (CC50) in series [4] came to 3 µM.
For `CC(C)CN1CCC(Nc2c3ccccc3[n+](C)c3c2[nH]c2ccccc23)CC1.[Cl-]`, the IC50 in series [1] worked out at 26 µM; in series [3], 2 µM; in series [5], 0.05 µM; in series [6], 8 µM. The “Ratio CC50/IC50” value in series [2] is 100. Besides, in series [4], the midpoint of cytotoxicity, the CC50, lay at 5 µM.
For `C[n+]1c2ccccc2c(NC2CCNCC2)c2[nH]c3ccccc3c21.[Cl-]`, in series [2], the “Ratio CC50/IC50” value was found to be 6200. Further, the IC50 in series [3] came out at 2 µM; in series [5], 0.01 µM; in series [6] it was 3 µM. The CC50 in series [4] stood at 62 µM.
As to `C[n+]1c2ccccc2cc2[n-]c3ccccc3c21.Cl` [CRYPTOLEPINE HYDROCHLORIDE], the IC50 in series [1] stood at 64 µM; in series [3] it was 23 µM; in series [5], 2 µM; in series [6], 28 µM. The “Ratio CC50/IC50” value in series [2] came to 0.6. The CC50 in series [4] was determined as 1.1 µM.
As for `CCN(CC)CCCNc1c2ccc(Cl)cc2[n+](C)c2c1[nH]c1ccccc12.[Cl-]`, the IC50 in series [1] came out at 64 µM; in series [3], 0.5 µM; in series [5], 0.02 µM; in series [6], 2 µM. In series [2], the “Ratio CC50/IC50” value was found to be 65. The compound also displayed a CC50 in series [4] of 1.3 µM.
For the compound `C[n+]1c2ccccc2c(Nc2ccccc2)c2[nH]c3ccccc3c21.[Cl-]`, the IC50 came to 99 µM in series [1], 7 µM in series [3], 0.3 µM in series [5] and 15 µM in series [6]. Further, in series [2], the “Ratio CC50/IC50” value is given as 2. In series [4], this compound came in with a CC50 of 0.6 µM.
`CC(C)NCCCNc1c2ccccc2[n+](C)c2c1[nH]c1ccccc12.[Cl-]`: the IC50 was determined as 62 µM in series [1], 26 µM in series [3], 0.1 µM in series [5] and 42 µM in series [6]. In addition, the “Ratio CC50/IC50” value in series [2] amounted to 30. The compound further yielded a CC50 in series [4] of 3 µM.
As to `C[n+]1c2ccccc2c(NC2CCN(Cc3ccccc3O)CC2)c2[nH]c3ccccc3c21.[Cl-]`, the IC50 in series [1] stood at 26 µM; in series [3], 0.9 µM; in series [5] it was 0.04 µM; in series [6], 6 µM. Moreover, in series [2], the “Ratio CC50/IC50” value is given as 65. In addition, the CC50 in series [4] worked out at 2.6 µM.
Turning to `C[n+]1c2cc(Cl)ccc2c(NC2CCNCC2)c2[nH]c3cc(Cl)ccc3c21.[Cl-]`, the IC50 is 43 µM in series [1], 0.5 µM in series [3], below 0.006 µM in series [5] and 1 µM in series [6]. Moreover, in series [2], the “Ratio CC50/IC50” value came to 133. In addition, the CC50 in series [4] was determined as 0.8 µM.
In the case of `C[n+]1c2ccccc2c(Nc2cccnc2)c2[nH]c3ccccc3c21.[Cl-]`, the IC50 came to 59 µM in series [1], 2 µM in series [3], 0.3 µM in series [5] and 5 µM in series [6]. The “Ratio CC50/IC50” value in series [2] is 8.6. For the same compound, it took 2.6 µM to reach half-maximal cytotoxicity in series [4] (CC50).
`C[n+]1c2ccccc2c(NCCCN2CCCCC2)c2[nH]c3ccccc3c21.[Cl-]`: the IC50 is 60 µM in series [1], 5 µM in series [3], 0.06 µM in series [5] and 11 µM in series [6]. In addition, the “Ratio CC50/IC50” value in series [2] is recorded as 33. Also, the CC50 in series [4] stood at 2 µM.
With `C[n+]1c2ccccc2c(Nc2ccc(N3CCCCC3)cc2)c2[nH]c3ccccc3c21.[Cl-]`, the IC50 in series [1] came to 76 µM; in series [3] it was 1 µM; in series [5] it was 0.08 µM; in series [6], 3 µM. For the same compound, the “Ratio CC50/IC50” value in series [2] worked out at 60. The compound also gave a CC50 in series [4] of 4.8 µM.
